Columns and labels:
Experiment in all cases: Transcription accelerating activity through RARs (PLAP reporter in COS-1 cells)
Type in all cases: cell-based
Settings in all cases: relative to ED30 of all-trans retinoic acid = 1, ED30 = concentration giving 30% of activity induced by 1 μM all-trans retinoic acid
RAR-α = biological target: T1, RAR-α (Homo sapiens, UniProt P10276)
T1 construct: expressed in transfected cells; host or cells: COS-1 (African green monkey kidney cells), transient lipofection
T1 sequence (P10276 1-462): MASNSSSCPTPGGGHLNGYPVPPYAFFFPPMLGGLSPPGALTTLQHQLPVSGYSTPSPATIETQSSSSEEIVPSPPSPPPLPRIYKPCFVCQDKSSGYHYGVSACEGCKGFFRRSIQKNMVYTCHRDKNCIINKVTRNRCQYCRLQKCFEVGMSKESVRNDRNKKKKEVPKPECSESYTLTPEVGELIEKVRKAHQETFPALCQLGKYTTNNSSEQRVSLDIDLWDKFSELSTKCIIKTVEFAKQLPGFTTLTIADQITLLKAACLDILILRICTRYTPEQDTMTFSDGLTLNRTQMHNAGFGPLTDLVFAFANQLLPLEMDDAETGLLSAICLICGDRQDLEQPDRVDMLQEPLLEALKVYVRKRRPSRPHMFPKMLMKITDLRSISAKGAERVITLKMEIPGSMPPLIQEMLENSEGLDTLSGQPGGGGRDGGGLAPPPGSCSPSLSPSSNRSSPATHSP
Description: (§1) Measurement of the Activities of Accelerating Trans-cription Through RARs
(§2) Human RAR Expression Vectors and secretory alkaline phosphatase (PLAP) gene vectors (PLAP vectors) containing in a state integrated into the upstream a competent sequence whose expression is […] through binding with RAR depending on a ligand were temporarily transferred into COS-1 (African green monkey kidney cells), and the PLAP which had been produced depending on a ligand and secreted into a culture medium was analyzed by the chemiluminescence method to determine the transcription-accelerating activity of each compound. Further, the selectivity of each compound among RARs was determined by comparing the transcription accelerating activities of the compound for the receptors with each other.
(§3) On a 60-mm culture dish were scattered 2.5×10^4 COS-1 cells. Four days after, human RAR α, β and γ expression vectors and PLAP vectors were transferred into the cells each in an amount of 4 μg by the lipofection method. Another day after, the resulting cells were recovered, and put on a 96-well culture plate in an amount of 2×10^4 per unit well. Four hours after, the cells were put on a medium containing charcoal-treated fetal bovine serum, followed by the addition of a dilution of all-trans retinoic acid or a test compound. After the lapse of 36 hours, the supernatant was recovered and the resulting samples were treated at 65° C. for 10 minutes to eliminate the non-specific activity. 15 μl of each sample was mixed with 60 μl of a 28 mM sodium carbonate buffer(pH10), followed by the addition of 75 μl of Smilight (trade name, a product of Sumitomo Metal Industries, Ltd., substrate for chemiluminescence). The resulting mixture was reacted at 37° C. for 30 minutes and the intensity of luminescence was determined. The compounds which will be described below induced the transcription activities of RARs dependently on the concentration.

RAR-β = biological target: T2, RAR-β (Homo sapiens, UniProt P10826)
T2 construct: expressed in transfected cells; host or cells: COS-1 (African green monkey kidney cells), transient lipofection
T2 sequence (P10826 1-455): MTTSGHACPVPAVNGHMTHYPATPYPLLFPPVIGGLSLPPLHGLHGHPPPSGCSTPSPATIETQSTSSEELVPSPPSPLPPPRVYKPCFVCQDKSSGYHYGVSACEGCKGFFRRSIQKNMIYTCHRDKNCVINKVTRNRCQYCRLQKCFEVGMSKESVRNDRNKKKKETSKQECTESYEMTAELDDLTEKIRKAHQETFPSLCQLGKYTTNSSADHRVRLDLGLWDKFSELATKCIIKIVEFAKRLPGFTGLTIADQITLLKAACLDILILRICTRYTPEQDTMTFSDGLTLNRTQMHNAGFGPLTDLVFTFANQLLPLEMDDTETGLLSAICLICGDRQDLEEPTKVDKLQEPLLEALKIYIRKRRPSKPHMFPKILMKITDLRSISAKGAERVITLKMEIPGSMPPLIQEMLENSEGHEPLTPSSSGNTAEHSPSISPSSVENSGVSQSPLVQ
Description: as §1, §2, §3

RAR-γ = biological target: T3, RAR-γ (Homo sapiens, UniProt P13631)
T3 construct: expressed in transfected cells; host or cells: COS-1 (African green monkey kidney cells), transient lipofection
T3 sequence (P13631 1-454): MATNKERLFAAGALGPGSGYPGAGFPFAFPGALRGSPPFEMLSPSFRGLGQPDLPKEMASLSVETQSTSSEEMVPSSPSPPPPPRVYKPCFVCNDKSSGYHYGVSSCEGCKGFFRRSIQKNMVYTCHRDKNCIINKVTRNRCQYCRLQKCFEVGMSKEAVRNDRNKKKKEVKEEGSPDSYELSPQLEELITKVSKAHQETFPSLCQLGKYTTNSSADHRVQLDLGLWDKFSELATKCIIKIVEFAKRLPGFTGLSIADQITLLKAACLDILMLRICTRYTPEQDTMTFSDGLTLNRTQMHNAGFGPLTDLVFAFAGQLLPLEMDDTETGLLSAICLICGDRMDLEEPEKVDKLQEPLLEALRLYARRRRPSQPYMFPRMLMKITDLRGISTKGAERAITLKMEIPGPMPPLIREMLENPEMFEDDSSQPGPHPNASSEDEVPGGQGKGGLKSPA
Description: as §1, §2, §3

Row | Compound | Transcription accelerating activity Relative ED30 RAR-α (RAR-α) | Transcription accelerating activity Relative ED30 RAR-β (RAR-β) | Transcription accelerating activity Relative ED30 RAR-γ (RAR-γ)
1 | O=C(O)c1ccc(-c2ccc(-c3cc4c(Cl)cccc4o3)[nH]2)cc1 [Example 60, 4-{2-[5-(4-Chlorobenzofuran-2-yl)pyrrolyl]}benzoic acid] | 0.72 | 110 | 750
2 | Cc1ccc(F)c2cc(-c3ccc(-c4ccc(C(=O)O)cc4)[nH]3)oc12 [Example 110, 4-{2-[5-(4-Fluoro-7-methylbenzofuran-2-yl)pyrrolyl]}benzoic acid] | 0.47 | 210 | 790
3 | CCc1cccc2ccc(-c3ccc(-c4ccc(C(=O)O)cc4)[nH]3)cc12 [Example 7, 4-{2-[5-(8-Ethylnaphthalen-2-yl)pyrrolyl]}benzoic acid] | 0.9 | 36 | 190
4 | Cc1ccc(C)c2c(C)c(-c3ccc(-c4ccc(C(=O)O)cc4)[nH]3)oc12 [Example 47, 4-{2-[5-(3,4,7-Trimethylbenzofuran-2-yl)pyrrolyl]}benzoic acid] | 0.80 | 2.4 | 41
5 | Cc1cccc2ccc(-c3ccc(-c4ccc(C(=O)O)cc4)[nH]3)cc12 [Example 6, 4-{2-[5-(8-Methylnaphthalen-2-yl)pyrrolyl]}benzoic acid] | 0.9 | 110 | 240
6 | Cc1ccc(Cl)c2sc(-c3ccc(-c4ccc(C(=O)O)cc4)[nH]3)cc12 [Example 75, 4-{2-[5-(7-Chloro-4-methylbenzothiophen-2-yl)pyrrolyl]}benzoic acid] | 0.80 | 150 | 2000
7 | CCCc1cccc2cc(-c3ccc(-c4ccc(C(=O)O)cc4)[nH]3)oc12 [Example 16, 4-{2-[5-(7-n-Propylbenzofuran-2-yl)pyrrolyl]}benzoic acid] | 1.0 | 74 | 410

From patent publication US6358995B1, “Carboxylic acid derivatives having fused rings” (Eisai Co., Ltd., priority 1996, dated 2002)
